Laboratory results as given in PubChem BioAssay (NCI).
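Following 48 hours of exposure in 96-well plates, responses at five concentrations were used to interpolate endpoints linearly. At the GI50, growth is halved. TGI: concentration producing complete growth inhibition.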

How the values were obtained:
Assay in all cases: inhibition of tumour cell growth, NCI panel, 48 h
[1] = tested on: A549 NSCLC
[2] = tested on: HCC-2998 colon
[3] = tested on: HCT-116 colon
[4] = tested on: KM12 colon
[5] = tested on: M14 melanoma
[6] = tested on: MDA-MB-435
[7] = tested on: NCI-H226 lung
[8] = tested on: NCI-H23 lung
[9] = tested on: NCI-H460 lung
[10] = tested on: U251 CNS

| Compound | TGI [1] [µM] | TGI [2] [µM] | TGI [3] [µM] | TGI [4] [µM] | TGI [5] [µM] | TGI [6] [µM] | TGI [7] [µM] | TGI [8] [µM] | TGI [9] [µM] | TGI [10] [µM] | GI50 [1] [µM] | GI50 [2] [µM] | GI50 [3] [µM] | GI50 [4] [µM] | GI50 [5] [µM] | GI50 [6] [µM] | GI50 [7] [µM] | GI50 [8] [µM] | GI50 [9] [µM] | GI50 [10] [µM] |
| --- | --- | --- | --- | --- | --- | --- | --- | --- | --- | --- | --- | --- | --- | --- | --- | --- | --- | --- | --- | --- |
| CCCCCC(=O)OC[n+]1ccc(-c2c(COC(=O)NC(C)C)c(COC(=O)NC(C)C)c3n2CCC3)cc1 | > 100 | > 100 | > 100 | > 100 | > 100 | > 100 | > 100 | > 100 | > 100 | > 100 |  |  |  |  |  |  |  |  |  |  |
| CN1CCN(C(=S)N(C(=O)c2ccc(Cl)cc2)C2CCCCC2)CC1 | > 100 | > 100 |  | > 100 | > 100 | > 100 | > 100 | > 100 | > 100 | > 100 |  |  |  |  |  |  |  |  |  |  |
| CC(=O)SC(C[N+](=O)[O-])c1ccccc1 (centres undefined) | 14 | 10.6 | 4.48 | 22.6 | 17.2 | 6.08 | 5.72 | 38.3 | 24.8 | 13.1 |  |  |  |  |  |  |  |  |  |  |
| CN(CC(=O)O)Cc1c[nH]c2ccccc12 | > 100 |  | > 100 | > 100 | > 100 | > 100 | > 100 | > 100 | > 100 | > 100 |  |  |  |  |  |  |  |  |  |  |
| O=C(/C=C/c1ccco1)c1cccc(Nc2nc(Nc3ccccc3)nc(Nc3ccccc3)n2)c1 | > 38.2 | > 100 | 35.3 | > 100 | > 100 | > 100 | > 82 | > 100 | > 27.1 | > 100 | 0.357 | 25.7 | 2.47 | 6.06 | 37.7 | 37.7 | 18.3 | 26.1 | 1.4 | 16 |
| COc1cc(Cl)c(C)cc1NC(=O)c1cc2ccccc2cc1O | 10.6 | 12.8 | 7.1 | 8.15 | 9.53 | 8.92 | 6.28 | 8.19 | 9.63 | 10.5 | 2.96 | 3.31 | 1.95 | 2.6 | 2.85 | 2.6 | 1.94 | 1.97 | 2.74 | 2.2 |
| COc1ccc(/C=N/C2=C(C#N)C(c3ccccc3)c3ccc4ccccc4c3O2)cc1 (centres undefined) | > 100 | > 42 | > 37.8 | > 100 | > 100 | 0.353 | > 100 | > 100 | > 100 | > 100 | 0.641 | 0.92 | 0.402 | 0.397 | 0.336 | 0.0962 | 2.08 | 0.469 | 0.363 | 0.457 |
| C/C(=N\O)c1ccc(Nc2cc(-c3ccccc3)nc3c(O)cccc23)cc1 | 31 | 23.4 | 25.9 | 21.4 | 31.3 | 26.6 | 31.8 | 49.5 |  | 38.6 | 10.2 | 10.6 | 13.2 | 4.06 | 16.2 | 6.72 | 14.7 | 17 |  | 11.8 |
| COc1cc(C2C(Cl)C(=O)N2NC(=O)c2ccccc2O)cc(OC)c1OC (centres undefined) | > 10 |  |  | > 10 | > 10 | > 10 | > 10 | 9.95 | > 10 | > 10 |  |  |  |  |  |  |  |  |  |  |
| COc1ccc2c(c1)cn1c3ccc(OC)cc3[nH]c(=O)c21 | 1.33 | 0.0679 | 1.05 | 0.247 | 1.4 | 0.0116 | 8.97 | 0.934 |  | 1.25 | < 0.0205 | < 0.0188 | < 0.0157 | < 0.0187 | 0.027 | < 0.01 | 0.059 | < 0.0238 |  | < 0.0172 |
| COc1cc(/C=C/C(=O)c2ccc(SC)cc2)cc(OC)c1OC | 20.7 | 33.2 | 13.7 | 29.1 | 22.4 | 25.8 |  | 23.5 | 32.6 | 12 | 6.25 | 18 | 3.3 | 13.3 | 10.5 | 12.4 |  | 10 | 15 | 3.27 |
| Nc1nc(N)c(N=Nc2ccc([As](=O)(O)O)c(O)c2)c(N)n1 | > 100 |  | > 33.7 | > 100 | > 100 | 6.37 | > 100 | > 100 | > 28.1 | > 100 |  |  |  |  |  |  |  |  |  |  |
| Cc1cc(=O)[nH]c2c1C(=O)C(=O)C=C2 | > 100 | > 100 | 35.4 |  | 60.9 | 33.2 | 73 | 48.3 | 74 | 63.5 | 81.9 | > 100 | 18.2 |  | 23.8 | 15.1 | 28.6 | 21.9 | 27.1 | 23.8 |
| COc1ccc(S(=O)(=O)Nc2c(/C=C\c3cc(OC)c(OC)c(OC)c3)ccc(OC)c2O)cc1OC | > 100 | 5.57 | > 100 | > 100 | > 100 | 0.302 |  | > 100 | > 100 | > 100 | 0.403 | 0.306 | 0.171 | 0.091 | 0.205 | 0.03 |  | 0.318 | 0.283 | 0.365 |
| C=C(C=O)[C@@H]1CC=C(C=O)CC1 | > 91.7 | 93.5 |  | 27.8 |  | 74.3 | 98.7 | > 100 | > 77.2 | 6.71 | 35.1 | 11.2 |  | 4.21 |  | 4.21 | 21.1 | 3.83 | 13.8 | 2.4 |
| c1ccc2c(c1)-c1nc3ccccc3cc1C2N1CCOCC1 (centres undefined) | > 100 |  | > 100 | > 100 | > 100 | > 100 | > 100 | > 100 |  | > 100 |  |  |  |  |  |  |  |  |  |  |
